Assays:
[1] = target: C. rugosa commercial lipase; design: method as in doi:10.1016/j.molcatb.2006.02.012; conditions: cited from earlier work
CpLIP2 lipase = CpLIP2 lipase (Candida parapsilosis, UniProt Q8NIN8); assay: Quenching of CpLIP2 intrinsic tryptophan fluorescence by flavonols (Stern–Volmer, Lehrer, van't Hoff analysis); format: binding; conditions: for KSV (Stern–Volmer quenching constant): CpLIP2 2.5 µM, pH 7.0, flavonol 2.5–25 µM (GAL 2.5–17.5 µM); for Kq (bimolecular quenching constant): Kq = KSV/τ0, τ0 1.59 ns; for KSV (accessible), Stern–Volmer quenching constant of the exposed W residues / fa (fraction of accessible W residues to the quencher): Lehrer equation; for ΔG (free energy change): ΔG = ΔH − TΔS; for Kd: Kd (dissociation constant); for order of magnitude of Kq: all temperatures of Table 1; for ΔS (entropy changes): van't Hoff plot, 298–328 K
CpLIP2 lipase, sequence (Q8NIN8 entry or part of it): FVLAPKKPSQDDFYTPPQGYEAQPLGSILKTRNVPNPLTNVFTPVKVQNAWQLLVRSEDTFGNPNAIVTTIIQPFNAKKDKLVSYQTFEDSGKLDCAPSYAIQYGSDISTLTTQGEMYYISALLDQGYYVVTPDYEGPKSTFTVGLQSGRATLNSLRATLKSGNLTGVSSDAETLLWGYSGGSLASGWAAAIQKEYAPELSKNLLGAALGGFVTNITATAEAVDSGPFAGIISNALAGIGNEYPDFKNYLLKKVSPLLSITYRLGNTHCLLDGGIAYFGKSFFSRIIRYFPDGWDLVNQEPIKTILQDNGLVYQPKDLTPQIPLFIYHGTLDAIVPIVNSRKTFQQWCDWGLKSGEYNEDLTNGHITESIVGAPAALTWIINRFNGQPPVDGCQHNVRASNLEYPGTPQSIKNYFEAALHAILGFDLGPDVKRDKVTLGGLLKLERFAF
Excerpt: The fluorescence quenching spectra of CpLIP2 lipase submitted to increasing concentrations of GAL, KAE, QUE and MYR are shown in Figure 3. A remarkable quenching of the CpLIP2 fluorescence emission was observed. […] The fluorescence quenching is usually described by the linear Stern–Volmer Equations (2) and (3):(2) F0/F = 1 + Ksv [Q] = 1 + Kqτ0 [Q] (3) Kq=Ksv/τ0 where F0 and F are the intrinsic fluorescence intensities of CpLIP2 lipase (fluorophore) in absence or presence of quencher (flavonol), respectively. Kq is the bimolecular quenching constant, τ0 is the lifetime of the fluorophore in the absence of the quencher, [Q] is the concentration of the quencher, and KSV is the Stern–Volmer quenching constant.
The mechanism of quenching, occurring between CpLIP2 lipase and flavonols, was characterized by determining the values of Kq and the thermodynamic parameters by varying the temperature. […] In both cases, the bimolecular quenching constant Kq can be calculated by the ratio between KSV and τ0, itself determined at 1.59 ns for Human Pancreatic Lipase.
The inaccessible or buried residues are responsible for the remaining fluorescence, which is probably independent of the quencher concentration. […] An up-down curvature towards the x-axis has been shown for the four flavonols (Figure 4), indicating the presence of two populations of fluorophores, part of which would not be accessible. That means that some W residues are buried inside the lipase structure and that other residues are exposed to the solvent. Therefore, data were analyzed through the Lehrer equation, also known as the modified (or non-linear) Stern–Volmer Equation (4):(4) F0/ F0−F = 1/ fa Ksv 1/ [Q] +1/ fa
For static quenching, the equilibrium between free and bound CpLIP2 lipase, when the ligand molecules bind independently to equivalent sites of macromolecules, can be described by the following Equation (5):(5) log10F0−F/F=nlog10[Q]+log10Ka where Ka is the binding constant and n the number of binding sites per CpLIP2 molecule.
The results were determined for all flavonols tested at different temperatures from the plots of log10 F0 − F/F versus log10 [Q] and listed in Table 2. The plots show a linear relationship from which the slope equal to n and intercept on y-axis equal to log10 Ka. For the four flavonols, the Ka values increased when the temperatures increased. In addition, the n values were less than 1.0 in all cases and increased according to the temperature. […] Values of the dissociation constant of complexes were deduced from the Stern–Volmer Equation (6) and (7), for which Kd is expressed as the inverse of fa Ksv product. (6) F0/ F0−F= Kd 1/ [Q] +1 (7) Kd= 1/fa Ksv
Thermodynamic parameters were calculated to determine the type of binding forces that contribute in the CpLIP2 lipase–flavonol interactions. […] Both the enthalpy (ΔH) and entropy changes (ΔS) can be estimated from the following van′t Hoff Equation (8):(8) Ln Ka = − ΔH /RT + ΔS /R
The values of Gibbs binding free energy change (ΔG) are calculated from the following Equation (9):(9) ΔG= ΔH − TΔS
To fill up the volume of 300 µL by well, 190 µL of sodium phosphate buffer solution (75 mM, pH 7.0) was added to each well to obtain final concentration at 50 mM. Then, 100 µL of ethanol absolute–water ultrapure (2:8, v/v) solution was added to obtain a final amount of ethanol […] in the well of 300 µL. […] The final concentration of ethanol during the experiments never exceeded 0.07% (v/v). The last step was to add 10 µL of lipase after to have optimized the final concentration of CpLIP2 equal to 2.5 µM for all our assays, giving the optimal fluorescence intensity for all measurements. The measurement of intrinsic fluorescence started after mechanical shaking for 30 s inside the multi-plate reader. […]

[2] = design: method as in PMID 24601218, doi:10.1021/ja00090a032; conditions: cited from earlier work

Compound	Ka (association constant) (CpLIP2 lipase; 298 K)	n (number of binding sites) (CpLIP2 lipase; 298 K)	KSV (Stern–Volmer quenching constant) (CpLIP2 lipase; 298 K)	Kq (bimolecular quenching constant) (CpLIP2 lipase; 298 K)	KSV (accessible), Stern–Volmer quenching constant of the exposed W residues (CpLIP2 lipase; 298 K)	fa (fraction of accessible W residues to the quencher) (CpLIP2 lipase; 298 K)	ΔG (free energy change) (CpLIP2 lipase; 298 K)	Ka (association constant) (CpLIP2 lipase; 308 K)	n (number of binding sites) (CpLIP2 lipase; 308 K)	KSV (Stern–Volmer quenching constant) (CpLIP2 lipase; 308 K)	Kq (bimolecular quenching constant) (CpLIP2 lipase; 308 K)	KSV (accessible), Stern–Volmer quenching constant of the exposed W residues (CpLIP2 lipase; 308 K)	fa (fraction of accessible W residues to the quencher) (CpLIP2 lipase; 308 K)	ΔG (free energy change) (CpLIP2 lipase; 308 K)	Ka (association constant) (CpLIP2 lipase; 318 K)	n (number of binding sites) (CpLIP2 lipase; 318 K)	KSV (Stern–Volmer quenching constant) (CpLIP2 lipase; 318 K)	Kq (bimolecular quenching constant) (CpLIP2 lipase; 318 K)	KSV (accessible), Stern–Volmer quenching constant of the exposed W residues (CpLIP2 lipase; 318 K)	fa (fraction of accessible W residues to the quencher) (CpLIP2 lipase; 318 K)	further results
O=c1c(O)c(-c2ccc(O)cc2)oc2cc(O)cc(O)c12 [KAE, kaempferol]	458 ± 2. L·mol^−1	0.63 ± 0.07	2.1 ± 0.2 × 10^4 L·mol^−1	1.3e+13 M⁻¹ s⁻¹	140000 L/mol	0.45	-9.39 kcal/mol	476 ± 4 L/mol	0.63 ± 0.07	1.9 ± 0.7 × 10^4 L·mol^−1	1.2e+13 M⁻¹ s⁻¹	170000 L/mol	0.43	-9.7 kcal/mol	862 ± 3 L/mol	0.69 ± 0.09	1.8 ± 0.7 × 10^4 L·mol^−1	1.1e+13 M⁻¹ s⁻¹	150000 L/mol	0.42	IC50 [1]: 6300 µM; ΔG (free energy change) (CpLIP2 lipase; 318 K): -10 kcal/mol; Ka (association constant) (CpLIP2 lipase; 328 K): 1290 ± 2 L/mol; n (number of binding sites) (CpLIP2 lipase; 328 K): 0.75 ± 0.07; KSV (Stern–Volmer quenching constant) (CpLIP2 lipase; 328 K): 1.6 ± 0.6 × 10^4 L·mol^−1; Kq (bimolecular quenching constant) (CpLIP2 lipase; 328 K): 1e+13 M⁻¹ s⁻¹; KSV (accessible), Stern–Volmer quenching constant of the exposed W residues (CpLIP2 lipase; 328 K): 150000 L/mol; fa (fraction of accessible W residues to the quencher) (CpLIP2 lipase; 328 K): 0.34; ΔG (free energy change) (CpLIP2 lipase; 328 K): -10.3 kcal/mol; Kd (CpLIP2 lipase; 298 K): 16 ± 3 µM; Kd (CpLIP2 lipase; 308 K): 14 ± 5 µM; Kd (CpLIP2 lipase; 318 K): 16 ± 7 µM; Kd (CpLIP2 lipase; 328 K): 19 ± 9 µM; order of magnitude of Kq (CpLIP2 lipase): ~10^13 L mol^−1 s^−1; ΔS (entropy changes) (CpLIP2 lipase): 0.13 kJ·mol^−1·K^−1; pKa1 [2]: 8.2
O=c1c(O)c(-c2cc(O)c(O)c(O)c2)oc2cc(O)cc(O)c12 [MYR, myricetin]	45.21 ± 1 L/mol	0.43 ± 0.02	1.6 ± 0.1 × 10^4 L·mol^−1	1e+13 M⁻¹ s⁻¹	290000 L/mol	0.34	-6.26 kcal/mol	53.09 ± 2 L/mol	0.46 ± 0.03	1.3 ± 0.5 × 10^4 L·mol^−1	8.2e+12 M⁻¹ s⁻¹	280000 L/mol	0.32	-6.45 kcal/mol	44.79 ± 1 L/mol	0.44 ± 0.02	1.2 ± 0.4 × 10^4 L·mol^−1	7.7e+12 M⁻¹ s⁻¹	320000 L/mol	0.30	ΔG (free energy change) (CpLIP2 lipase; 318 K): -6.67 kcal/mol; Ka (association constant) (CpLIP2 lipase; 328 K): 97.14 ± 2 L/mol; n (number of binding sites) (CpLIP2 lipase; 328 K): 0.51 ± 0.09; KSV (Stern–Volmer quenching constant) (CpLIP2 lipase; 328 K): 1.4 ± 0.5 × 10^4 L·mol^−1; Kq (bimolecular quenching constant) (CpLIP2 lipase; 328 K): 9e+12 M⁻¹ s⁻¹; KSV (accessible), Stern–Volmer quenching constant of the exposed W residues (CpLIP2 lipase; 328 K): 250000 L/mol; fa (fraction of accessible W residues to the quencher) (CpLIP2 lipase; 328 K): 0.33; ΔG (free energy change) (CpLIP2 lipase; 328 K): -6.88 kcal/mol; Kd (CpLIP2 lipase; 298 K): 10 ± 1 µM; Kd (CpLIP2 lipase; 308 K): 11 ± 4 µM; Kd (CpLIP2 lipase; 318 K): 10 ± 4 µM; Kd (CpLIP2 lipase; 328 K): 12 ± 7 µM; fa (fraction of accessible W residues) (CpLIP2 lipase; across temperatures): 0.33; n (number of binding sites) (CpLIP2 lipase; across temperatures): 0.43; order of magnitude of Kq (CpLIP2 lipase): ~10^13 L mol^−1 s^−1; ΔS (entropy changes) (CpLIP2 lipase): 0.10 kJ·mol^−1·K^−1; pKa1 [2]: 6.6
O=c1c(O)c(-c2ccc(O)c(O)c2)oc2cc(O)cc(O)c12 [QUE, quercetin]	2034 ± 2 L/mol	0.78 ± 0.06	1.8 ± 0.1 × 10^4 L·mol^−1	1.1e+13 M⁻¹ s⁻¹	70000 L/mol	0.54	-10.1 kcal/mol	1824 ± 9 L/mol	0.77 ± 0.05	1.6 ± 0.6 × 10^4 L·mol^−1	1e+13 M⁻¹ s⁻¹	80000 L/mol	0.52	-10.4 kcal/mol	3041 ± 2 L/mol	0.81 ± 0.07	1.6 ± 0.6 × 10^4 L·mol^−1	1e+13 M⁻¹ s⁻¹	70000 L/mol	0.55	ΔG (free energy change) (CpLIP2 lipase; 318 K): -10.8 kcal/mol; Ka (association constant) (CpLIP2 lipase; 328 K): 4616 ± 3 L/mol; n (number of binding sites) (CpLIP2 lipase; 328 K): 0.85 ± 0.11; KSV (Stern–Volmer quenching constant) (CpLIP2 lipase; 328 K): 2.0 ± 0.7 × 10^4 L·mol^−1; Kq (bimolecular quenching constant) (CpLIP2 lipase; 328 K): 1.3e+13 M⁻¹ s⁻¹; KSV (accessible), Stern–Volmer quenching constant of the exposed W residues (CpLIP2 lipase; 328 K): 50000 L/mol; fa (fraction of accessible W residues to the quencher) (CpLIP2 lipase; 328 K): 0.69; ΔG (free energy change) (CpLIP2 lipase; 328 K): -11.1 kcal/mol; Kd (CpLIP2 lipase; 298 K): 27 ± 6 µM; Kd (CpLIP2 lipase; 308 K): 24 ± 10 µM; Kd (CpLIP2 lipase; 318 K): 25 ± 10 µM; Kd (CpLIP2 lipase; 328 K): 31 ± 13 µM; fa (fraction of accessible W residues) (CpLIP2 lipase; across temperatures): 0.55; order of magnitude of Kq (CpLIP2 lipase): ~10^13 L mol^−1 s^−1; ΔS (entropy changes) (CpLIP2 lipase): 0.14 kJ·mol^−1·K^−1
